Tests used:
Format in all cases: cell-based
RXRα = target: T1, RXRα (Homo sapiens, UniProt P19793); assay: co-transfection (cis-trans) assay in CV-1 cells, RXRα; settings: for Emax: CV-1, maximal response relative to all-trans-retinoic acid at 10^-5 M, read-out: Efficacy RXRα; for EC50: CV-1 cells, luciferase reporter, concentration giving 50% of maximal observed response, read-out: Potency (nM) RXRα
T1 construct: expressed in transfected cells; host or cells: CV-1 (monkey kidney)
T1 sequence (P19793 1-462): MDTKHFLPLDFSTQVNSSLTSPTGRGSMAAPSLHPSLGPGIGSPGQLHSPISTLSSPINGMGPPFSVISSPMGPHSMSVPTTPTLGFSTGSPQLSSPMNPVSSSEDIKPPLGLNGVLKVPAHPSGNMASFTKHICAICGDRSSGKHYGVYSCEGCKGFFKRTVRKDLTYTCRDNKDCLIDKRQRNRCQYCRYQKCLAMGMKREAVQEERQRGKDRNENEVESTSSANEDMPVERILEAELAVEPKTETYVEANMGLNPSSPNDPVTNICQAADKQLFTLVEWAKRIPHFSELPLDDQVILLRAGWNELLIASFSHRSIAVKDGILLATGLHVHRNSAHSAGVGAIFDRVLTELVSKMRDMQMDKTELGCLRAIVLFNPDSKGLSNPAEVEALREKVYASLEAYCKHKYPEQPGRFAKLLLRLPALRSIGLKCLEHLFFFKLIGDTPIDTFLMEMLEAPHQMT
From the text: (§1) The co-transfection assay provides a mechanism to evaluate the ability of a compound to modulate the transcription response initiated by an intracellular receptor. […] Berger et al., J. Steroid Biochem. Molec.
(§2) Briefly, the co-transfection assay involves the introduction of two plasmids by transient transfection into a retinoid receptor-negative mammalian cell background. The first plasmid contains a retinoid receptor cDNA and directs constitutive expression of the encoded receptor. The second plasmid contains a cDNA that encodes for a readily quantifiable protein, e.g., firefly luciferase or chloramphenicol acetyl transferase (CAT), under control of a promoter containing a retinoid acid response element, which confers retinoid dependence on the transcription of the reporter. In this co-transfection assay, all retinoid receptors respond to all-trans-retinoic acid in a similar fashion. This assay can be used to accurately measure efficacy and potency of retinoic acid and synthetic retinoids as ligands that interact with the individual retinoid receptor subtypes.
(§3) Accordingly, synthetic retinoid compounds of the current invention were evaluated for their interaction with retinoid receptor subtypes using the co-transfection assay in which CV-1 cells were co-transfected with one of the retinoid receptor subtypes, a reporter construct, and an internal control to allow normalization of the response for transfection efficiency. The following example is illustrative.
(§4) Retinoids: All-trans-retinoic acid (RA) and 13-cis-retinoic acid (13-cis-RA) were obtained from Sigma. […] Retinoids were dissolved in dimethylsulfoxide for use in the transcriptional activation assays.
(§5) Co-transfection Assay In CV-1 Cells: A monkey kidney cell line, CV-1, was used in the cis-trans assay. Cells were transfected with two plasmids. […] The cis-vector contains an easily assayable gene product, in this case the firefly luciferase, coupled to a retinoid-responsive promoter, i.e., an RARE or RXRE. Addition of retinoic acid or an appropriate synthetic retinoid results in the formation of a retinoid-RAR or -RXR complex that activates the expression of luciferase gene, causing light to be emitted from cell extracts. The level of luciferase activity is directly proportional to the effectiveness of the retinoid-receptor complex in activating gene expression. This sensitive and reproducible co-transfection approach permits the identification of retinoids that interact with the different receptor isoforms.
(§6) Cells were cultured in DMEM supplemented with 10% charcoal resin-stripped fetal bovine serum, and experiments were conducted in 96-well plates. […] Cells were transfected for 6 h and then washed to remove the precipitate. The cells were then incubated for 36 h with or without retinoid. […]

RARα = target: T2, RARα (Homo sapiens, UniProt P10276); assay: co-transfection (cis-trans) assay in CV-1 cells, RARα; settings: for Emax: CV-1, maximal response relative to all-trans-retinoic acid at 10^-5 M, read-out: Efficacy RARα; for EC50: CV-1 cells, luciferase reporter, concentration giving 50% of maximal observed response, read-out: Potency (nM) RARα
T2 construct: expressed in transfected cells; host or cells: CV-1 (monkey kidney)
T2 sequence (P10276 1-462): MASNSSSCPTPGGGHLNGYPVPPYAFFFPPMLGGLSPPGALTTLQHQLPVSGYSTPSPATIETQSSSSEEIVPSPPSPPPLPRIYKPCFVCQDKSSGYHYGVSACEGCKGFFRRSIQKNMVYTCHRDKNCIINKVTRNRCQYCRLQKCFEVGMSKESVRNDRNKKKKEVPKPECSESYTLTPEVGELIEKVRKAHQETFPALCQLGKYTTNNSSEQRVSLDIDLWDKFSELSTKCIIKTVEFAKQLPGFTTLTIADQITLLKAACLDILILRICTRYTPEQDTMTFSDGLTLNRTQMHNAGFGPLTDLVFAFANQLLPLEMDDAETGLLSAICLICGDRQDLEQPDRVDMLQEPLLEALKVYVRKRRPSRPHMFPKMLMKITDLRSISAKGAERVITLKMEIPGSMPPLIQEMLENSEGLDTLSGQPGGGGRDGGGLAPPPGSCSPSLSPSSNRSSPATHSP
From the text: as §1, §2, §3, §4, §5, §6

RARγ = target: T3, RARγ (Homo sapiens, UniProt P13631); assay: co-transfection (cis-trans) assay in CV-1 cells, RARγ; settings: for Emax: CV-1, maximal response relative to all-trans-retinoic acid at 10^-5 M, read-out: Efficacy RARγ; for EC50: CV-1 cells, luciferase reporter, concentration giving 50% of maximal observed response, read-out: Potency (nM) RARγ
T3 construct: expressed in transfected cells; host or cells: CV-1 (monkey kidney)
T3 sequence (P13631 1-454): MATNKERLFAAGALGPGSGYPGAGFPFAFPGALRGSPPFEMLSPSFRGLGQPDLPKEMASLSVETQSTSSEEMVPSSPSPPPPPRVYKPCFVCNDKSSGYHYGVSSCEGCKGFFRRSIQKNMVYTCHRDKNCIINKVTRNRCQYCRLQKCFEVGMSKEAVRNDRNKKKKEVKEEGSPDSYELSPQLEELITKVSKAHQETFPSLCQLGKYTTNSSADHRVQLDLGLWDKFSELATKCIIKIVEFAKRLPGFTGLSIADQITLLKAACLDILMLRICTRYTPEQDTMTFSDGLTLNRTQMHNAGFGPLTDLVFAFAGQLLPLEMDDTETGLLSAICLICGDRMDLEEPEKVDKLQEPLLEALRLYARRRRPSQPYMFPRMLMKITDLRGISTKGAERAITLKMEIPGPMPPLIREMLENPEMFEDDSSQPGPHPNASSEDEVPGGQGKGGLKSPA
From the text: as §1, §2, §3, §4, §5, §6

Emax (RXRα)	EC50 (RXRα)	Emax (RARα)	EC50 (RARα)	Emax (RARγ)	EC50 (RARγ)	SMILES
47%	270 nM	< 2%	> 10000 nM	< 2%	> 10000 nM	Cc1cc(C(C)(C)C)ccc1C(=NO)c1ccc(C(=O)O)cc1 [Compound 137, 4-[(2-methyl-4-t-butylphenyl)carbonyl]benzoic acid oxime]
86%	440 nM	< 2%	> 10000 nM	< 2%	> 10000 nM	C=C(c1ccc(C(=O)O)cc1)c1ccc(C(C)(C)C)cc1C [Compound 133, 4-[1-(2-methyl-4-t-butylphenyl)ethenyl]benzoic acid]
